Test results: article PMC4821612, “Multispecific Organic Cation Transporter 1 (OCT1) from Bos taurus Has High Affinity and Slow Binding Kinetics towards Prostaglandin E2” (PLoS ONE, 2016)

Tests used:
[1] = molecular target: T1, Organic cation transporter 1 (btOCT1) (Bos taurus, UniProt A7MBE0, N107Q/N71Q/N91Q); experiment: SPR kinetics, purified btOCT1 over streptavidin-immobilised PGE2-PEG11-Biotin (PEG11-Biotin control); steady-state k […]; type: binding
T1 construct: gene SLC22A1; purified tag-free btOCT1 triple N-glycosylation mutant (NP_001094568.1), expressed in Pichia pastoris
T1 sequence (A7MBE0 1-563 N71Q/N91Q/N107Q): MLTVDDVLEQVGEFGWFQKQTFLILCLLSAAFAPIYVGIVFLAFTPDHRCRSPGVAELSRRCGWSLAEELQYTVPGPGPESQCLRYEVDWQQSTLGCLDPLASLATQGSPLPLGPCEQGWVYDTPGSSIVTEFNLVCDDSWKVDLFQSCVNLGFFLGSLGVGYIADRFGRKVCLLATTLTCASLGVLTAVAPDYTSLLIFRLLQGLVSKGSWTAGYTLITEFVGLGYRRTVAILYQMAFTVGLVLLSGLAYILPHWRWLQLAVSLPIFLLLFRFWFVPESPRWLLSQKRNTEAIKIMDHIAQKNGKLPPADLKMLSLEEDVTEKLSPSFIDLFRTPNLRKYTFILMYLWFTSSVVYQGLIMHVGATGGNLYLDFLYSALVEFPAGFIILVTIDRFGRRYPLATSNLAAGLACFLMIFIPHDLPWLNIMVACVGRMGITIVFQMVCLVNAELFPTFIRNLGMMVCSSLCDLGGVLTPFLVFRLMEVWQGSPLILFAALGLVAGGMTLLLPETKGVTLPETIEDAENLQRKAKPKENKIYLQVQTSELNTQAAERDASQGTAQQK

[2] = molecular target: T2, Organic cation transporter 1 (btOCT1) (Bos taurus, UniProt A7MBE0, N71Q/N91Q/N107Q); experiment: fluorescence polarization with purified btOCT1; rhodamine […] alone does not bind; type: binding
T2 construct: gene SLC22A1; purified tag-free btOCT1 triple N-glycosylation mutant (NP_001094568.1), expressed in Pichia pastoris
T2 sequence (A7MBE0 1-563 N71Q/N91Q/N107Q): T1 sequence (A7MBE0 1-563 N71Q/N91Q/N107Q)

Kd [2]	Molecule	Kd [1]
	CCCCC[C@H](O)/C=C/[C@H]1[C@H](O)CC(=O)[C@@H]1C/C=C\CCCC(=O)O [Prostaglandin E2]	~100 nM
540 nM	PGE2-Rhodamine	
